{
  "source": "paper PMC9061822",
  "about": "“A novel SRSF3 inhibitor, SFI003, exerts anticancer activity against colorectal cancer by modulating the SRSF3/DHCR24/ROS axis” (Cell Death Discovery, 2022)",
  "key": {"[1]": {"test": "Tissue distribution in ICR mice", "type": "in vivo", "conditions": "oral 100 mg/kg", "method": "29 the blood samples by centrifuging at 5,000 rpm under 4℃ for 5 min. For\n30 determination of SFI003 concentration in mice tissues, the male ICR mice (n=3) were\n31 orally administrated with 100mg/kg SFI003, and the liver and kidney of the mice were\n32 collected at 0.25, 0.5, 1, 2, 4, 8, and 12 h after administration. An aliquot of 25 µl plasma\n(§1) 33 or tissue sample was added into 100 µl acetonitrile containing internal standard\n(§2) 34 Tolbutamide. The mixture was vortexed for 3 min and centrifuged at 13,000 rpm for 10\n(§3) 35 min. An aliquot of 10 µl resulting supernatant was injected to LC -MS/MS system\n(§4) 36 (API4000 QTrap; AB Sciex) for compound analysis. The analytes were separated in a\n(§5) 37 Venusil XBP-C18 column (2.1×50 mm, 5 μm; Agela, China) using the mixture of 5mM\n(§6) 38 NH4OAc-0.1% formic acid (A) and methanol (B) as mobile phase. The gradient\n(§7) 39 condition was: 1.3 min, 2%B; 2.0 min, 90%B; 3.5 min, 90%B; 3.8 min, 2%B. The elutes\n(§8) 40 were detected by MS/MS spectrometry using ESI positive mode with m/z 271.1>172.2,\n(§9) 42 SFI003. […]"}, "[2]": {"tested_on": "CCDC50S, p53α and p53β mRNA", "test": "RT-PCR of SRSF3 target gene mRNA in HCT-116 and SW480 cells", "type": "cell-based, Human", "conditions": "20 μM, 72 h", "method": "HCT-116 and SW480 cells were transfected with 100 nM siRNA for 48 h or treated with SFI003 for 72 h. Total RNA was isolated by using TRIzol (Invitrogen, CA, USA) according to the manufacturer’s instructions and then was reversely transcribed into cDNA with random primers (TaKaRa, Kusatsu, Japan) and RT-Kit (Thermo, CA, USA). The cDNA was amplified by PCR using the primers listed in Supplementary Table 1."}, "[3]": {"test": "Pharmacokinetics in ICR mice", "type": "in vivo", "conditions": "mouse, plasma", "method": "29 the blood samples by centrifuging at 5,000 rpm under 4℃ for 5 min. […]\nas §1, §2, §3, §4, §5, §6, §7, §8, §9\n52 Druggability evaluation of SFI003\n53 Next, we evaluated the druggability of SFI003. We first examined the\n54 pharmacokinetic properties of SFI003 in mice. We measured the plasma concentration\n55 of SFI003 in mice after oral administration of 100 mg/kg SFI003."}, "[4]": {"tested_on": "HCT-116 xenografts", "test": "HCT-116 xenografts in SCID mice", "type": "in vivo", "conditions": "two weeks; for number of tumors that disappeared: HCT-116 xenografts", "method": "To explore the effect of SFI003 on the growth of CRC, approximately 3 × 10^6 HCT-116 cells or 8 × 10^6 SW480 cells were collected and mixed with Matrigel (Corning, NY, USA) at a 1:1 ratio by volume and then injected into the lower back region of mice. When tumors were palpable, mice were randomly divided into four groups. One group received vehicle as a control, while the other three groups were orally administered SFI003 at a dosage of 100 or 200 mg/kg or capecitabine at a dosage of 100 mg/kg for two continuous weeks. The tumor sizes and mouse body weights were monitored every other day. At the end of the experiment, tumors and blood samples were collected for further studies. The tumor size was evaluated according to Eq.: tumor size (mm^3) = (length × width^2) × 0.5."}, "[5]": {"molecular_target": "T1, SRSF3 (Homo sapiens, UniProt P84103)", "T1 sequence (P84103 1-164)": "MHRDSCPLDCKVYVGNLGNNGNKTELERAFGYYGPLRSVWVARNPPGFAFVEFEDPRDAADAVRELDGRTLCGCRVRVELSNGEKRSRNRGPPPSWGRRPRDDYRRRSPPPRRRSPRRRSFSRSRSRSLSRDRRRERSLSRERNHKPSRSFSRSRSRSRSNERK", "test": "Western blot of SRSF3 protein in HCT-116 and SW480 cells", "type": "cell-based", "set-up": "endogenous in cells; host or cells: HCT-116 and SW480", "conditions": "HCT-116 and SW480 cells, various doses, 72 h", "method": "(§10) After cell lysates were prepared, protein concentrations were determined by a BCA assay (TaKaRa, Kusatsu, Japan). Equal amounts of protein were separated by SDS–PAGE and transferred to polyvinylidene difluoride membranes. After normalization, the blots were probed with appropriate antibodies, as described previously."}, "[6]": {"tested_on": "SW480 cells", "test": "MTT assay in SW480 cells", "type": "cell-based, Human", "method": "Human CRC cell lines were purchased from the American Type Culture Collection (VA, USA). HCT-116 cells were cultured in DMEM (HyClone, Utah, USA) containing 10% fetal bovine serum (FBS; Gibco, NY, USA). SW480 cells were cultured in RPMI 1640 medium (HyClone, Utah, USA) containing 10% FBS. All cells were cultured in an incubator (Thermo, CA, USA) at a constant temperature of 37 °C and 5% CO2. N-Acetylcysteine (NAC), Trolox, MLN4924, 5-Fu, and capecitabine were purchased from MedChemExpress LLC (Shanghai, China). MG132 was purchased from Santa Cruz Biotech (CA, USA). Chloroquine (CHQ) was purchased from Sigma (CA, USA). Rapamycin was purchased from Beyotime (Shanghai, China). Primary antibodies against SRSF3 and E-Cadherin were purchased from Abcam (Cambridge, UK). Primary antibodies against N-Cadherin, Caspase 3, DHCR24, CAT, Akt and phospho-Akt (Ser473) were purchased from Cell Signaling Technology (MA, USA). Primary antibodies against β-actin, mTOR, and phospho-mTOR ([…]) were purchased from Beyotime (Shanghai, China). Primary antibody against Vimentin was purchased from Proteintech (Wuhan, China). Primary antibody against Bcl-2 was purchased from Santa Cruz Biotech (CA, USA). Primary antibody against Flag was purchased from MBL Beijing Biotech (Beijing, China). CRC cells were transfected with 100 nM siRNA or treated with various doses of SFI003 for 24 h, 48 h, or 72 h before being subjected to MTT assay as described previously."}, "[7]": {"test": "Plasma protein binding", "type": "in vitro ADME", "conditions": "read-out: plasma protein binding rate (converted)"}, "[8]": {"test": "Pharmacokinetics in ICR mice", "type": "in vivo", "conditions": "mouse, plasma, iv, 10 mg/kg"}, "[9]": {"tested_on": "Akt-mTOR pathway", "test": "WB of p-Akt and p-mTOR in HCT-116 and SW480 cells", "type": "cell-based, Human", "conditions": "HCT-116 and SW480, 20 μM, 72 h", "method": "as §10"}},
  "note": "Read-outs that look alike come from different tables or passages of the source.",
  "data": [
    {"smiles": "COc1ccc(-c2csc(N/N=C(\\C)c3nc4ccccc4[nH]3)n2)cc1", "note": "[SFI003]", "values": [
      {"measurement": "distribution to liver and kidney", "setting": "[1]", "value": "highly accumulated"},
      {"measurement": "mRNA level of CCDC50S", "setting": "[2]", "value": "markedly reduced"},
      {"measurement": "mRNA level of p53α", "setting": "[2]", "value": "markedly reduced"},
      {"measurement": "mRNA level of p53β", "setting": "[2]", "value": "elevated"},
      {"measurement": "bioavailability", "setting": "[3]; oral, p.o. 100 mg/kg vs i.v. 10 mg/kg, read-out: F (bioavailability)", "value": 52.5, "unit": "%"},
      {"measurement": "AUC(0-inf)", "setting": "[3]; po, 100 mg/kg", "value": 30900, "unit": "ng·h/mL"},
      {"measurement": "AUC(0-t)", "setting": "[3]; po, 100 mg/kg", "value": 30900, "unit": "ng·h/mL"},
      {"measurement": "Tmax", "setting": "[3]; po, 100 mg/kg", "value": 2, "unit": "h"},
      {"measurement": "half-life", "setting": "[3]; po, 100 mg/kg", "value": 1.86, "unit": "h"},
      {"measurement": "MRT inf", "setting": "[3]; po, 100 mg/kg, read-out: MRTINF_obs", "value": 4.66, "unit": "h"},
      {"measurement": "Cmax", "setting": "[3]; po, 100 mg/kg", "value": 4440, "unit": "ng/mL"},
      {"measurement": "growth of HCT-116 xenografts", "setting": "[4]; 100 or 200 mg/kg orally, dose-dependent", "value": "efficiently suppressed"},
      {"measurement": "number of tumors that disappeared", "setting": "[4]; 100 mg/kg orally, 100 mg/kg", "value": "two and two of six"},
      {"measurement": "number of tumors that disappeared", "setting": "[4]; 200 mg/kg orally", "value": "three"},
      {"measurement": "level of SRSF3 protein", "setting": "[5]", "value": "apparently reduced"},
      {"measurement": "IC50", "setting": "[6]; Homo sapiens, SW480 cells, 72 h", "value": 48.7, "unit": "µM"},
      {"measurement": "cytotoxicity after SRSF3 silencing", "setting": "[6]; SW480, SRSF3 siRNA 24 h, then 50 μM for 72 h", "value": "eliminated"},
      {"measurement": "inhibition of proliferation", "setting": "[6]; SW480, various doses, 24, 48 and 72 h", "value": "dose- and time-dependent"},
      {"measurement": "fraction unbound", "setting": "[7]", "value": 0.586},
      {"measurement": "AUC(0-inf)", "setting": "[8]", "value": 5890, "unit": "ng·h/mL"},
      {"measurement": "AUC(0-t)", "setting": "[8]", "value": 5890, "unit": "ng·h/mL"},
      {"measurement": "half-life", "setting": "[8]", "value": 0.4, "unit": "h"},
      {"measurement": "MRT inf", "setting": "[8]; read-out: MRTINF_obs", "value": 0.44, "unit": "h"},
      {"measurement": "Vd", "setting": "[8]; read-out: Vss", "value": 0.75, "unit": "L/kg"},
      {"measurement": "activities of Akt (p-Akt) and mTOR (p-mTOR)", "setting": "[9]", "value": "inhibited"}
    ]}
  ]
}
